{
  "source": "paper PMC10289903",
  "about": "(Investigational New Drugs, 2023)",
  "key": {"[1]": {"tested_on": "platinum-resistant ovarian cancer", "details": "adavosertib with carboplatin; cited from earlier work"}, "[2]": {"tested_on": "platinum-resistant or platinum-refractory recurrent ovarian cancer", "details": "adavosertib 175 mg qd days 1, 2, 8, 9, 15, 16 of a 28-day cycle with gemcitabine; 95% CI 3.6–6.4; cited from earlier work"}, "[3]": {"details": "human, in vivo", "description": "(§1) Analyses were performed for the bid dosing schedules and RP2D only.\n(§2) Water was restricted from 1 h pre-dose until 1 h post-dose, except for the 240 mL of water administered with treatment.\n(§3) Natural log-transformed AUC and Cmax were compared between fed/fasted conditions using a mixed effects analysis of variance model, which was fitted separately for each assessed dose. Estimates of the mean difference between treatments and corresponding 90% CI were calculated using a linear mixed effects model with a fixed effect for treatment (fed versus fasted) and a random effect for patients. Back transformed geometric means and 95% CIs were estimated for each condition."}, "[4]": {"tested_on": "patients with locally advanced or metastatic solid tumors", "excerpt": "This was a Phase Ib, multicenter, open-label, dose-finding clinical trial (NCT02610075). […] Three types of treatment schedules were investigated: cohorts bid 1, bid 2, qd 1.1, qd 2.1 and qd 3.1 received bid or qd treatment on a 5/9 schedule (5 days on treatment, followed by 9 days off) on a 14-day cycle. Cohorts qd 1.2, qd 2.2, and qd 3.2 received treatment on a 5/2 schedule (5 days on followed by 2 days off for 2 of 3 weeks) in a 21-day cycle. Cohorts qd 2.3 and qd 3.3 received treatment on a weekly 5/2 schedule in a 21-day cycle (Table 1). The highest dose level(s) at which less than one-third of evaluable patients (none of 3 patients or 1 of 6 patients) experienced a dose-limiting toxicity (DLT) was declared the MTD.\nDLTs were evaluated during the first 28 days (5/9 schedule) or the first 21 days (5/2 schedule) of treatment."}, "clinical [5]": {"assay": "clinical", "details": "human, in vivo", "description": "as §1, §2, §3"}, "[6]": {"tested_on": "locally advanced or metastatic solid tumors", "assay": "Preliminary antitumor activity (ORR, DCR, SD, PFS; RECIST v1.1)", "assay_type": "in vivo, human", "details": "for Duration of response: confirmed partial response", "method": "Preliminary efficacy was assessed using objective response rate (ORR) in patients with measurable disease, disease control rate (DCR) and progression-free survival (PFS), all in accordance with RECIST v1.1 [17]. Responses for ORR required confirmation after at least 4 weeks.\nAfter initiation of treatment, tumor burden was assessed at baseline and every 8 weeks (± 1 week) for the qd 5/9 dosing, and every 9 weeks (± 1 week) for the qd 5/2 treatment schedule, respectively, using computed tomography or magnetic resonance imaging of the chest and abdomen or pelvis.\nThe per protocol analysis set was defined as a subset of the full analysis set, excluding subjects having an important protocol deviation, to be used for analyses of efficacy endpoints if appropriate."}, "[7]": {"tested_on": "recurrent ovarian cancer with progressive disease while receiving PARPi", "details": "cited from earlier work"}, "clinical [8]": {"assay": "clinical", "details": "in vivo", "method": "Pre-dose samples were also collected on day 5 of treatment cycle 5.\nThe slope estimate (β) and corresponding 90% confidence interval (CI) were calculated, where a β estimate of 1 with 90% CI entirely within the bounds of 0.8–1.25 indicated perfect dose proportionality."}, "[9]": {"tested_on": "recurrent uterine serous carcinoma", "details": "300 mg qd days 1–5 and 8–12 of a 21-day cycle, monotherapy, cited from earlier work"}, "[10]": {"details": "qd 2.3: 250 mg qd 5/2 weekly (n=10)"}, "[11]": {"details": "qd 3.3: 300 mg 5/2 weekly (n=2)"}},
  "note": "Read-outs that look alike come from different tables or passages of the source.",
  "data": [
    {"smiles": "C=CCn1c(=O)c2cnc(Nc3ccc(N4CCN(C)CC4)cc3)nc2n1-c1cccc(C(C)(C)O)n1", "note": "[adavosertib, Adavosertib]", "values": [
      {"measurement": "Response rate", "setting": "[1]", "value": 66.7, "unit": "%"},
      {"measurement": "PFS", "setting": "[2]", "value": 4.6, "unit": "months"},
      {"measurement": "AUC0–10, geometric LS mean (95% CI)", "setting": "[3]; 125 mg", "value": "1658.8 (1017.1, 2705.3) h*nmol/L"},
      {"measurement": "AUC0–10, geometric LS mean (95% CI)", "setting": "[3]; 150 mg", "value": "3228.0 (1698.9, 6133.3) h*nmol/L"},
      {"measurement": "AUC0–10, geometric LS mean (95% CI)", "setting": "[3]; 300 mg", "value": "5340.4 (65.0, 439027.6) h*nmol/L"},
      {"measurement": "Cmax", "setting": "[3]; 300 mg", "value": 819, "unit": "nM"},
      {"measurement": "Maximum tolerated dose (MTD)", "setting": "[4]; bid 5/9 schedule (cohort bid 1)", "value": 125, "unit": "mg"},
      {"measurement": "DLT nausea, occurrences", "setting": "[4]; human, in vivo", "value": 3, "unit": "n"},
      {"measurement": "DLT thrombocytopenia, occurrences", "setting": "[4]; human, in vivo", "value": 3, "unit": "n"},
      {"measurement": "Number of DLTs reported", "setting": "[4]; human, in vivo", "value": 12},
      {"measurement": "Recommended Phase II dose (RP2D)", "setting": "[4]; human, in vivo, 21 days", "value": 300, "unit": "mg"},
      {"measurement": "All other DLTs (dehydration, neutropenia, weight decrease, pneumonia, diarrhea, vomiting), occurrences each", "setting": "[4]; in vivo", "value": "once"},
      {"measurement": "Maximum tolerated dose (MTD)", "setting": "[4]; qd 5/2 for 2 of 3 weeks (cohort qd 3.2)", "value": 300, "unit": "mg"},
      {"measurement": "Maximum tolerated dose (MTD)", "setting": "[4]; qd 5/9 schedule (cohort qd 3.1)", "value": 300, "unit": "mg"},
      {"measurement": "Cmax", "setting": "clinical [5]; 125 mg", "value": 276, "unit": "nM"},
      {"measurement": "Cmax", "setting": "clinical [5]; 150 mg, Cmax, geometric LS mean (95% CI)", "value": 464, "unit": "nM"},
      {"measurement": "Duration of response", "setting": "[6]; 1 patient with anal carcinoma, qd 1.2 cohort", "value": 6.9, "unit": "months"},
      {"measurement": "Duration of response", "setting": "[6]; 1 patient with thymoma, bid 2 cohort", "value": 3.7, "unit": "months"},
      {"measurement": "DCR, CP + PR + SD/n (%)", "setting": "[6]; Total (N=62)", "value": "48.4 CP + PR + SD/n (%)"},
      {"measurement": "Median PFS, months (95% CI)", "setting": "[6]; Total (N=62)", "value": "2.7 (2.0–3.8) months"},
      {"measurement": "ORR, CP + PR/n (%)", "setting": "[6]; Total, 58 patients with measurable disease at baseline", "value": "3.4 CP + PR/n (%)"},
      {"measurement": "Patients with confirmed (or unconfirmed) complete responses", "setting": "[6]; all cohorts", "value": "None"},
      {"measurement": "Patients alive and progression-free at data cutoff", "setting": "[6]; all cohorts (N=62)", "value": "14 (22.6%) n (%)"},
      {"measurement": "Patients who had experienced a PFS event at data cutoff", "setting": "[6]; all cohorts (N=62)", "value": "47 (75.8%) n (%)"},
      {"measurement": "DCR, CP + PR + SD/n (%)", "setting": "[6]; bid 2: 150 mg bid 5/9 (n=6)", "value": "2 (33.3) CP + PR + SD/n (%)"},
      {"measurement": "Median PFS, months (95% CI)", "setting": "[6]; bid 2: 150 mg bid 5/9 (n=6)", "value": "1.9 (1.0–NC) months"},
      {"measurement": "Patients progression-free at 6 months after first dose", "setting": "[6]; of 62 patients, 95% CI 10.0–32.2", "value": 19.8, "unit": "%"},
      {"measurement": "DCR, CP + PR + SD/n (%)", "setting": "[6]; qd 1.1: 200 mg qd 5/9 (n=5)", "value": "2 (40.0) CP + PR + SD/n (%)"},
      {"measurement": "Median PFS, months (95% CI)", "setting": "[6]; qd 1.1: 200 mg qd 5/9 (n=5)", "value": "2.0 (0.6–NC) months"},
      {"measurement": "ORR, CP + PR/n (%)", "setting": "[6]; qd 1.1: 200 mg qd 5/9 (n=5)", "value": "0 CP + PR/n (%)"},
      {"measurement": "DCR, CP + PR + SD/n (%)", "setting": "[6]; qd 1.2: 200 mg qd 5/2 (n=6)", "value": "2 (33.3) CP + PR + SD/n (%)"},
      {"measurement": "Median PFS, months (95% CI)", "setting": "[6]; qd 1.2: 200 mg qd 5/2 (n=6)", "value": "2.7 (1.2–9.0) months"},
      {"measurement": "DCR, CP + PR + SD/n (%)", "setting": "[6]; qd 2.1: 250 mg qd 5/9 (n=4)", "value": "1 (25.0) CP + PR + SD/n (%)"},
      {"measurement": "Median PFS, months (95% CI)", "setting": "[6]; qd 2.1: 250 mg qd 5/9 (n=4)", "value": "1.9 (1.8–4.1) months"},
      {"measurement": "ORR, CP + PR/n (%)", "setting": "[6]; qd 2.1: 250 mg qd 5/9 (n=4)", "value": "0 CP + PR/n (%)"},
      {"measurement": "DCR, CP + PR + SD/n (%)", "setting": "[6]; qd 2.2: 250 mg qd 5/2 (n=3)", "value": "2 (66.7) CP + PR + SD/n (%)"},
      {"measurement": "Median PFS, months (95% CI)", "setting": "[6]; qd 2.2: 250 mg qd 5/2 (n=3)", "value": "3.7 (1.2–11.0) months"},
      {"measurement": "ORR, CP + PR/n (%)", "setting": "[6]; qd 2.2: 250 mg qd 5/2 (n=3)", "value": "0 CP + PR/n (%)"},
      {"measurement": "DCR, CP + PR + SD/n (%)", "setting": "[6]; [10]", "value": "3 (30.0) CP + PR + SD/n (%)"},
      {"measurement": "Median PFS, months (95% CI)", "setting": "[6]; [10]", "value": "2.1 (0.6–4.1) months"},
      {"measurement": "ORR, CP + PR/n (%)", "setting": "[6]; [10]", "value": "0 CP + PR/n (%)"},
      {"measurement": "DCR, CP + PR + SD/n (%)", "setting": "[6]; qd 3.1: 300 mg qd 5/9 (n=4)", "value": "3 (75.0) CP + PR + SD/n (%)"},
      {"measurement": "Median PFS, months (95% CI)", "setting": "[6]; qd 3.1: 300 mg qd 5/9 (n=4)", "value": "7.6 (2.7–9.3) months"},
      {"measurement": "ORR, CP + PR/n (%)", "setting": "[6]; qd 3.1: 300 mg qd 5/9 (n=4)", "value": "0 CP + PR/n (%)"},
      {"measurement": "DCR, CP + PR + SD/n (%)", "setting": "[6]; qd 3.2: 300 mg qd 5/2 (n=16)", "value": "11 (68.8) CP + PR + SD/n (%)"},
      {"measurement": "Median PFS, months (95% CI)", "setting": "[6]; qd 3.2: 300 mg qd 5/2 (n=16)", "value": "3.2 (2.1–5.0) months"},
      {"measurement": "ORR, CP + PR/n (%)", "setting": "[6]; qd 3.2: 300 mg qd 5/2 (n=16)", "value": "0 CP + PR/n (%)"},
      {"measurement": "DCR, CP + PR + SD/n (%)", "setting": "[6]; [11]", "value": "0 CP + PR + SD/n (%)"},
      {"measurement": "Median PFS, months (95% CI)", "setting": "[6]; [11]", "value": "2.6 (NC–NC) months"},
      {"measurement": "ORR, CP + PR/n (%)", "setting": "[6]; [11]", "value": "0 CP + PR/n (%)"},
      {"measurement": "ORR", "setting": "[7]; adavosertib alone, 90% CI 12–38", "value": 23, "unit": "%"},
      {"measurement": "ORR", "setting": "[7]; combination therapy with PARP inhibitor, 90% CI 16–44", "value": 29, "unit": "%"},
      {"measurement": "Dose proportionality power model slope β, AUC0–10", "setting": "clinical [8]; human", "value": 1.31},
      {"measurement": "Dose proportionality power model slope β, Cmax", "setting": "clinical [8]; human", "value": 1.31},
      {"measurement": "half-life", "setting": "clinical [8]; human, po", "value": "5 to 12", "unit": "h"},
      {"measurement": "Dose proportionality of systemic exposure", "setting": "clinical [8]", "value": "more than dose proportional"},
      {"measurement": "ORR", "setting": "[9]; 95% CI 15.1–47.5", "value": 29.4, "unit": "%"},
      {"measurement": "Median PFS", "setting": "[9]", "value": 6.1, "unit": "months"}
    ]}
  ]
}
